*1 amine or outer side, *2 acyl side, *3 side chain or, on linkers, in order; H or OH if unused. Where a SMILES comes first, the peptide text is derived from it. Bridges are numbered along the chain shown (N, C = ends). [ ]: non-standard residue; d: D form. The star is where a group is joined. X6 = O=C(O)CN1CCN(CC(=O)O)CCN(CC(=O)NCCCOCCOCCOCCCN*)CCN(CC(=O)O)CC1; DOTA = O=C(O)CN1CCN(CC(=O)O)CCN(CC(=O)*)CCN(CC(=O)O)CC1; Pro(cis-4-F) = O=C(O)[C@@H]1C[C@H](F)CN1; Glutaryl = O=C(CCCC(=O)[*:2])[*:1]; Gly(cPent) = N[C@H](C(=O)O)C1CCCC1; Hyp = O=C(O)[C@@H]1C[C@@H](O)CN1; hPhe = N[C@@H](CCc1ccccc1)C(=O)O; Pentanoyl(4-Me) = CC(C)CCC(=O)*; 2Thi = N[C@@H](Cc1cccs1)C(=O)O; Cit = NC(=O)NCCC[C@H](N)C(=O)O; Butoxycarbonyl = CCCCOC(=O)*; Suc = O=C(CCC(=O)[*:2])[*:1]; hSer = N[C@@H](CCO)C(=O)O; Nle = CCCC[C@H](N)C(=O)O; Nva = CCC[C@H](N)C(=O)O; Hexanoyl = CCCCCC(=O)*; Pentanoyl = CCCCC(=O)*; Bz = O=C(c1ccccc1)*; βAla = NCCC(=O)O
What was measured:
[1] = target: T1, uPAR-expressing HEC-265 human endometrial adenocarcinoma cells (Homo sapiens, UniProt Q03405); test: Competitive FACS binding assay; conditions: pIC50 category of FACS binding
T1 construct: Cell surface uPAR-expressing HEC-265 human endometrial adenocarcinoma cells; host or cells: HEC-265
Procedure, shortened: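 Competitive displacement of a 10 nM biotinylated peptide from HEC-265 cells (1 h, 4 °C, PBS/1% BSA), detected via APC-streptavidin by flow cytometry. pIC50 from four-parameter logistic fit of median fluorescence versus concentration.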

[2] = target: T2, human uPAR (uPAR-Fc) (Homo sapiens, UniProt Q03405); test: Surface plasmon resonance (SPR) assay, single cycle kinetics; assay type: binding; conditions: pKD category for uPAR SPR activity assay; uPAR-Fc on Protein A-Chip, single cycle kinetics, 25°C; read-out: pKD CAT (converted)
T2 construct: comprising amino acids Leu23-Arg303 according to UniProt entry Q03405.1; purchased R&D Systems 10378-UK-100
Procedure, shortened: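 uPAR-Fc (Leu23-Arg303 extracellular domains, human IgG1 Fc) captured on Protein A chip to ~2000 RU; single-cycle kinetics at 25°C in HEPES running buffer pH 7.4 with 0.1% DMSO. KD from double-referenced sensorgrams fitted to 1:1 Langmuir model, reported as pKD.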

T2 sequence (Q03405 23-303): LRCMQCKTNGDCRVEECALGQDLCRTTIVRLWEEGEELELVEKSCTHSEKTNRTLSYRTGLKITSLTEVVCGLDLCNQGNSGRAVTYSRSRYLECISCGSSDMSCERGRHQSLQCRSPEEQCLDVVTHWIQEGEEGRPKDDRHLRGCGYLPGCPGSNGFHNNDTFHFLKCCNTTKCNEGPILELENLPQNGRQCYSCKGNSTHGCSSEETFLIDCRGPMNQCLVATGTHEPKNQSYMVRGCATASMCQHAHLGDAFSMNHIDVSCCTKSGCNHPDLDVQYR
T1 sequence (Q03405 23-335): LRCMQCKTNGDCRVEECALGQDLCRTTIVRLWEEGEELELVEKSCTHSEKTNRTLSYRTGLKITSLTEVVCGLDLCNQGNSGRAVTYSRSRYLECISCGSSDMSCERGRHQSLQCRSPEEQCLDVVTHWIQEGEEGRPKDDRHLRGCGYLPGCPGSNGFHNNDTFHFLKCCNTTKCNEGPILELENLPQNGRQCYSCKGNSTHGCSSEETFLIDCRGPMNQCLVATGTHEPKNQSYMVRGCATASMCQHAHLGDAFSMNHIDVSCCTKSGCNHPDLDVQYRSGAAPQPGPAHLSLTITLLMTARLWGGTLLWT

Row | IC50 [1] | Kd [2] | SMILES
1 | ≤ 10 nM | < 1.58 nM | CCCC[C@H](NC(=O)CCC(=O)NCCCOCCOCCOCCCNC(=O)CN1CCN(CC(=O)O)CCN(CC(=O)O)CCN(CC(=O)O)CC1)C(=O)N[C@@H](CC(=O)O)C(=O)N[C@@H](CC(C)C)C(=O)N[C@H]1CSSC[C@@H](C(N)=O)NC(=O)[C@H](CC(C)C)NC(=O)[C@H]([C@@H](C)CC)NC(=O)[C@H](C)NC(=O)[C@@H]2CCCN2C(=O)[C@H](Cc2ccccc2)NC(=O)[C@H](Cc2ccc(O)cc2)NC(=O)[C@H](CCSC)NC(=O)[C@H](CCCNC(=N)N)NC1=O [UPAR-347, DOTA-Ttds-Nle-Asp-Leu-[Cys-Arg-Met-Tyr-Phe-Pro-Ala-Ile-Leu-Cys]-NH2] ({X6-Suc}-[Nle]DLCRMYFPAILC-NH2; disulfide 4-13)
2 | ≤ 10 nM | 1.58 to 10 nM | CC(C)CCC(=O)N[C@H]1CSSC[C@@H](C(N)=O)NC(=O)[C@H](CC(C)C)NC(=O)[C@H](C2CCCC2)NC(=O)[C@@H](C)NC(=O)[C@@H]2CCCN2C(=O)[C@H](Cc2ccccc2)NC(=O)[C@H](Cc2ccc(O)cc2)NC(=O)[C@H](CCC(N)=O)NC(=O)[C@H](CCCNC(N)=O)NC1=O [UPAR-349, iHex-[Cys-Cit-Gln-Tyr-Phe-Pro-ala-Cpg-Leu-Cys]-NH2] ({Pentanoyl(4-Me)}-C[Cit]QYFP[dA][Gly(cPent)]LC-NH2; disulfide 1-10)
3 | 12.6 to 31.6 nM | 1.58 to 10 nM | CCCCC(=O)N[C@H]1CSSC[C@@H](C(=O)NCCC(N)=O)NC(=O)[C@H](CCC)NC(=O)[C@H]([C@@H](C)CC)NC(=O)[C@@H]2C[C@@H](O)CN2C(=O)[C@@H]2CCCN2C(=O)[C@H](Cc2ccccc2)NC(=O)[C@H](Cc2ccc(O)cc2)NC(=O)[C@H](CCC(N)=O)NC(=O)[C@H](CCCNC(N)=O)NC1=O [UPAR-353, Pent-[Cys-Cit-Gln-Tyr-Phe-Pro-Hyp-Ile-Nva-Cys]-Bal-NH2] (Pentanoyl-C[Cit]QYFP[Hyp]I[Nva]C[βAla]-NH2; disulfide 1-10)
4 | ≤ 10 nM | < 1.58 nM | CC[C@H](C)[C@@H]1NC(=O)[C@@H](C)NC(=O)[C@@H]2C[C@H](F)CN2C(=O)[C@H](Cc2ccccc2)NC(=O)[C@H](Cc2ccc(O)cc2)NC(=O)[C@H](CCC(N)=O)NC(=O)[C@H](CCCNC(N)=O)NC(=O)[C@@H](NC(=O)CCC(C)C)CSSC[C@@H](C(N)=O)NC(=O)[C@H](CC(C)C)NC1=O [UPAR-354, iHex-[Cys-Cit-Gln-Tyr-Phe-4Cfp-ala-Ile-Leu-Cys]-NH2] ({Pentanoyl(4-Me)}-C[Cit]QYF[Pro(cis-4-F)][dA]ILC-NH2; disulfide 1-10)
5 | ≤ 10 nM | < 1.58 nM | CCC[C@@H]1NC(=O)[C@H]([C@@H](C)CC)NC(=O)[C@@H]2C[C@@H](O)CN2C(=O)[C@@H]2CCCN2C(=O)[C@H](Cc2ccccc2)NC(=O)[C@H](Cc2ccc(O)cc2)NC(=O)[C@H](CCC(N)=O)NC(=O)[C@H](CCCNC(=N)N)NC(=O)[C@@H](NC(=O)c2ccccc2)CSSC[C@@H](C(N)=O)NC1=O [UPAR-356, Bz-[Cys-Arg-Gln-Tyr-Phe-Pro-Hyp-Ile-Nva-Cys]-NH2] (Bz-CRQYFP[Hyp]I[Nva]C-NH2; disulfide 1-10)
6 | ≤ 10 nM | 1.58 to 10 nM | CC[C@H](C)[C@@H]1NC(=O)[C@@H](CCCNC(=N)N)NC(=O)[C@@H]2CCCN2C(=O)[C@H](Cc2ccccc2)NC(=O)[C@H](Cc2ccc(O)cc2)NC(=O)[C@H](CCC(N)=O)NC(=O)[C@H](CCCNC(N)=O)NC(=O)[C@@H](NC(=O)CCC(C)C)CSSC[C@@H](C(N)=O)NC(=O)[C@H](CC(C)C)NC1=O [UPAR-357, iHex-[Cys-Cit-Gln-Tyr-Phe-Pro-arg-Ile-Leu-Cys]-NH2] ({Pentanoyl(4-Me)}-C[Cit]QYFP[dR]ILC-NH2; disulfide 1-10)
7 | ≥ 126 nM | > 100 nM | CC[C@H](C)[C@@H]1NC(=O)[C@@H](C)NC(=O)[C@@H]2CCCN2C(=O)[C@H](Cc2ccccc2)NC(=O)[C@H](Cc2ccc(O)cc2)NC(=O)[C@H](CCC(N)=O)NC(=O)[C@H](CCCNC(N)=O)NC(=O)[C@@H](NC(=O)CCCC(=O)O)CSSC[C@@H](C(N)=O)NC(=O)[C@H](CC(C)C)NC1=O [UPAR-359, Glutar-[Cys-Cit-Gln-Tyr-Phe-Pro-ala-Ile-Leu-Cys]-NH2] (Glutaryl-C[Cit]QYFP[dA]ILC-NH2; disulfide 1-10)
8 | ≤ 10 nM | < 1.58 nM | CCCCC(=O)N[C@H]1CSSC[C@@H](C(N)=O)NC(=O)[C@H](CCC)NC(=O)[C@H]([C@@H](C)CC)NC(=O)[C@@H]2C[C@@H](O)CN2C(=O)[C@@H]2CCCN2C(=O)[C@H](Cc2cccs2)NC(=O)[C@H](Cc2ccc(O)cc2)NC(=O)[C@H](CCCCNC(=O)CN2CCN(CC(=O)O)CCN(CC(=O)O)CCN(CC(=O)O)CC2)NC(=O)[C@H](CCCNC(N)=O)NC1=O [UPAR-360, Pent-[Cys-Cit-Lys(DOTA)-Tyr-Thi-Pro-Hyp-Ile-Nva-Cys]-NH2] (Pentanoyl-C[Cit]K(DOTA)Y[2Thi]P[Hyp]I[Nva]C-NH2; disulfide 1-10)
9 | ≤ 10 nM | < 1.58 nM | CCCCC(=O)N[C@H]1CSSC[C@@H](C(N)=O)NC(=O)[C@H](CCC)NC(=O)[C@H]([C@@H](C)CC)NC(=O)[C@@H]2C[C@@H](O)CN2C(=O)[C@@H]2CCCN2C(=O)[C@H](Cc2ccccc2)NC(=O)[C@H](Cc2ccc(O)cc2)NC(=O)[C@H](CCC(N)=O)NC(=O)[C@@H]2CCCN2C1=O [UPAR-361, Pent-[Cys-Pro-Gln-Tyr-Phe-Pro-Hyp-Ile-Nva-Cys]-NH2] (Pentanoyl-CPQYFP[Hyp]I[Nva]C-NH2; disulfide 1-10)
10 | ≤ 10 nM | < 1.58 nM | CCCCC(=O)N[C@H]1CSSC[C@@H](C(N)=O)NC(=O)[C@H](CC(C)C)NC(=O)[C@H]([C@@H](C)CC)NC(=O)[C@@H](C)NC(=O)[C@@H]2CCCN2C(=O)[C@H](Cc2ccccc2)NC(=O)[C@H](Cc2ccc(O)cc2)NC(=O)[C@H](CCC(N)=O)NC(=O)[C@H](CCCNC(N)=O)NC1=O [UPAR-362, Pent-[Cys-Cit-Gln-Tyr-Phe-Pro-ala-Ile-Leu-Cys]-NH2] (Pentanoyl-C[Cit]QYFP[dA]ILC-NH2; disulfide 1-10)
11 | ≤ 10 nM | < 1.58 nM | CCCCCC(=O)N[C@@H](CC(=O)O)C(=O)N[C@@H](CC(C)C)C(=O)N[C@H]1CSSC[C@@H](C(N)=O)NC(=O)[C@H](CC(C)C)NC(=O)[C@H]([C@@H](C)CC)NC(=O)[C@H](C)NC(=O)[C@@H]2CCCN2C(=O)[C@H](Cc2ccccc2)NC(=O)[C@H](Cc2ccc(O)cc2)NC(=O)[C@H](CCSC)NC(=O)[C@H](CCCNC(=N)N)NC1=O [UPAR-363, Hex-Asp-Leu-[Cys-Arg-Met-Tyr-Phe-Pro-Ala-Ile-Leu-Cys]-NH2] (Hexanoyl-DLCRMYFPAILC-NH2; disulfide 3-12)
12 | ≤ 10 nM | < 1.58 nM | CCCCC(=O)N[C@H]1CSSC[C@@H](C(N)=O)NC(=O)[C@H](CCC)NC(=O)[C@H]([C@@H](C)CC)NC(=O)[C@@H]2C[C@@H](O)CN2C(=O)[C@@H]2C[C@H](F)CN2C(=O)[C@H](Cc2ccccc2)NC(=O)[C@H](Cc2ccc(O)cc2)NC(=O)[C@H](CCCCNC(=O)CN2CCN(CC(=O)O)CCN(CC(=O)O)CCN(CC(=O)O)CC2)NC(=O)[C@H](CCCNC(N)=O)NC1=O [UPAR-365, Pent-[Cys-Cit-Lys(DOTA)-Tyr-Phe-4Cfp-Hyp-Ile-Nva-Cys]-NH2] (Pentanoyl-C[Cit]K(DOTA)YF[Pro(cis-4-F)][Hyp]I[Nva]C-NH2; disulfide 1-10)
13 | 12.6 to 31.6 nM | 10 to 100 nM | CCCCC(=O)N[C@H]1CSSC[C@@H](C(N)=O)NC(=O)[C@H](CCC)NC(=O)[C@H]([C@@H](C)CC)NC(=O)[C@@H]2C[C@@H](O)CN2C(=O)[C@@H]2CCCN2C(=O)[C@H](Cc2ccccc2)NC(=O)[C@H](CCc2ccccc2)NC(=O)[C@H](CCC(N)=O)NC(=O)[C@H](CCCNC(=N)N)NC1=O [UPAR-366, Pent-[Cys-Arg-Gln-Hfe-Phe-Pro-Hyp-Ile-Nva-Cys]-NH2] (Pentanoyl-CRQ[hPhe]FP[Hyp]I[Nva]C-NH2; disulfide 1-10)
14 | ≤ 10 nM | 10 to 100 nM | CC[C@H](C)[C@@H]1NC(=O)[C@@H](CCCCNC(=O)CN2CCN(CC(=O)O)CCN(CC(=O)O)CCN(CC(=O)O)CC2)NC(=O)[C@@H]2CCCN2C(=O)[C@H](Cc2ccccc2)NC(=O)[C@H](Cc2ccc(O)cc2)NC(=O)[C@H](CCC(N)=O)NC(=O)[C@H](CCCNC(=N)N)NC(=O)[C@@H](NC(=O)CCC(C)C)CSSC[C@@H](C(N)=O)NC(=O)[C@H](CC(C)C)NC1=O [UPAR-367, iHex-[Cys-Arg-Gln-Tyr-Phe-Pro-lys(DOTA)-Ile-Leu-Cys]-NH2] ({Pentanoyl(4-Me)}-CRQYFP[dK](DOTA)ILC-NH2; disulfide 1-10)

Row | SMILES | IC50 [1] | Kd [2]
15 | CCCCOC(=O)N[C@H]1CSSC[C@@H](C(N)=O)NC(=O)[C@H](CCC)NC(=O)[C@H]([C@@H](C)CC)NC(=O)[C@@H]2C[C@@H](O)CN2C(=O)[C@@H]2C[C@H](F)CN2C(=O)[C@H](Cc2ccccc2)NC(=O)[C@H](Cc2ccc(O)cc2)NC(=O)[C@H](CCC(N)=O)NC(=O)[C@H]([C@@H](C)O)NC1=O [UPAR-358, Butoc-[Cys-Thr-Gln-Tyr-Phe-4Cfp-Hyp-Ile-Nva-Cys]-NH2] (Butoxycarbonyl-CTQYF[Pro(cis-4-F)][Hyp]I[Nva]C-NH2; disulfide 1-10) | ≤ 10 nM | < 1.58 nM
16 | CCCCOC(=O)N[C@H]1CSSC[C@@H](C(N)=O)NC(=O)[C@H](CCO)NC(=O)[C@H]([C@@H](C)CC)NC(=O)[C@@H]2C[C@@H](O)CN2C(=O)[C@@H]2C[C@H](F)CN2C(=O)[C@H](Cc2ccccc2)NC(=O)[C@H](Cc2ccc(O)cc2)NC(=O)[C@H](CCCCNC(=O)CN2CCN(CC(=O)O)CCN(CC(=O)O)CCN(CC(=O)O)CC2)NC(=O)[C@H]([C@@H](C)O)NC1=O [UPAR-368, Butoc-[Cys-Thr-Lys(DOTA)-Tyr-Phe-4Cfp-Hyp-Ile-Hse-Cys]-NH2] (Butoxycarbonyl-CTK(DOTA)YF[Pro(cis-4-F)][Hyp]I[hSer]C-NH2; disulfide 1-10) | ≤ 10 nM | 10 to 100 nM

Reference: patent publication EP4610269A1, “UROKINASE PLASMINOGEN ACTIVATOR SURFACE RECEPTOR (UPAR) LIGANDS FOR DIAGNOSTIC OR THERAPEUTIC USE” (3B Pharmaceuticals GmbH, priority 2024, dated 2025)
